Values of other authors in patent publication US20240122962A1, “PHARMACEUTICAL COMPOSITION FOR USE IN THE PREVENTION OR TREATMENT OF A CONDITION ASSOCIATED WITH A REDUCTION IN THE NUMBER OF LACTOBACILLI IN THE VAGINA” (priority 2020, published 2024).

Test system: bacterial vaginosis (BV)
Conditions: 7-day oral treatment, after 1 month

For `Cc1ncc([N+](=O)[O-])n1CCO` [Metronidazole, metronidazole], the cure rate is listed as 80-90%.
